Test results from publication PMC4138103 (PLoS ONE, 2014).

System: Sprague-Dawley rats
Test: Organ weights
Assay type: in vivo, Rattus norvegicus
Procedure: At the end of the treatment period (males on study day 28–31, females on study day 28–32) the rats were anesthetized with CO2/O2 (70/30%). Blood samples were drawn from the left ventricle using Venoject needles (Terumo) and Vacuette EDTA and serum blood collection tubes, and the rats were killed by exsanguination. EDTA blood was used for hematology investigations (see below). Serum was separated, divided into aliquots, frozen in liquid nitrogen and stored at −70°C for further analysis (see below). A complete necropsy (macroscopic observations, tissue sampling for molecular biology, biochemistry, histopathology, analytical chemistry and organ weights) was performed on each rat. The weights of the following organs were recorded: adrenals, brain, epididymides, heart, kidneys, liver, lungs, ovaries, pituitary, prostate (ventral), seminal vesicles, spleen, testes, thymus, thyroids (with parathyroids) and uterus. For molecular biology and biochemical analyses samples from brain, liver, kidney, bones, and several other tissues were snap frozen in liquid nitrogen and stored at −80°C for further analysis. […] Tissue samples for histopathology were preserved in 10% neutral buffered formalin except testis and epididymis, which were fixed in Bouin's solution for 24 h after which they were transferred into 70% ethanol.
Data were also analyzed using the BMD method, which is based on dose-response modeling of the full data set using a nested family of exponential and Hill models. The analyses were done on data of males and females combined, using sex as a covariate. […] In that case, different Critical Effect Doses (CEDs) and CEDs at the lowest bound of the confidence interval (CED-L) were generated for each sex. If no difference between sexes is detected, a CED and CED-Ls for the combined data is generated. However, this was also done if the curve fits are close, and separate analyses for males and females were then performed manually. CEDs and CED-Ls were calculated at the predefined Critical Effect Size (CES) of 5% (EFSA standard) or 10%.

[1] = females, total dose 1000 mg/kg bw, group mean
[2] = females, total dose 1700 mg/kg bw, group mean
[3] = males, CES 5%, total dose based
[4] = males, CES 10%, total dose based
[5] = males, adipose tissue concentration based
[6] = males, total dose 3 mg/kg bw, group mean
[7] = males, total dose 10 mg/kg bw, group mean
[8] = males, total dose 30 mg/kg bw, group mean
[9] = males, total dose 100 mg/kg bw, group mean
[10] = males, total dose 300 mg/kg bw, group mean
[11] = males, total dose 1000 mg/kg bw, group mean
[12] = males, total dose 1700 mg/kg bw, group mean

Clc1cc(Cl)c(-c2cc(Cl)c(Cl)c(Cl)c2Cl)cc1Cl [PCB 180, 2,2′,3′,4,4′,5,5′-heptachlorobiphenyl]
Organ weight, Spleen [1]: 0.700 g | Organ weight, Thymus [1]: 0.528 g | Organ weight, Thyroid gland [1]: 0.0158 g | Organ weight, Uterus [1]: 0.374 g | Organ weight, Adrenals [2]: 0.0657 g | Organ weight, Brain [2]: 1.60 g | Organ weight, Heart [2]: 0.900 g | Organ weight, Kidneys [2]: 1.40 g | Organ weight, Ovaries [2]: 0.102 g | Organ weight, Pituitary [2]: 0.0108 g | Organ weight, Spleen [2]: 0.664 g | Organ weight, Thymus [2]: 0.560 g | Organ weight, Thyroid gland [2]: 0.0160 g | Organ weight, Uterus [2]: 0.366 g | Dose response, Thyroid gland weight (males, total dose 0-1700 mg/kg bw): D, T | Liver weight, CED [3]: 11.6 mg/kg bw | Liver weight, CED-L [3]: 5.48 mg/kg bw | Thyroid gland weight, CED [3]: 239 mg/kg bw | Thyroid gland weight, CED-L [3]: 168 mg/kg bw | Liver weight, CED [4]: 24.2 mg/kg bw | Liver weight, CED-L [4]: 11.4 mg/kg bw | Thyroid gland weight, CED [4]: 467 mg/kg bw | Thyroid gland weight, CED-L [4]: 328 mg/kg bw | Liver weight, CED [5]: 42.3 µg/g lipid | Thyroid weight, CED [5]: 1030 µg/g lipid | Organ weight, Adrenals [6]: 0.0472 g | Organ weight, Brain [6]: 1.65 g | Organ weight, Epididymides [6]: 0.972 g | Organ weight, Heart [6]: 1.27 g | Organ weight, Kidneys [6]: 2.00 g | Organ weight, Pituitary [6]: 0.0091 g | Organ weight, Seminal vesicles [6]: 0.915 g | Organ weight, Spleen [6]: 0.828 g | Organ weight, Testis L [6]: 1.82 g | Organ weight, Testis R [6]: 1.82 g | Organ weight, Thymus [6]: 0.632 g | Organ weight, Thyroid gland [6]: 0.0210 g | Organ weight, Ventral prostate [6]: 0.492 g | Organ weight, Adrenals [7]: 0.0514 g | Organ weight, Brain [7]: 1.75 g | Organ weight, Epididymides [7]: 0.952 g | Organ weight, Heart [7]: 1.17 g | Organ weight, Kidneys [7]: 2.15 g | Organ weight, Pituitary [7]: 0.0088 g | Organ weight, Seminal vesicles [7]: 0.983 g | Organ weight, Spleen [7]: 0.828 g | Organ weight, Testis L [7]: 1.92 g | Organ weight, Testis R [7]: 1.88 g | Organ weight, Thymus [7]: 0.594 g | Organ weight, Thyroid gland [7]: 0.0221 g | Organ weight, Ventral prostate [7]: 0.451 g | Organ weight, Adrenals [8]: 0.0665 g | Organ weight, Brain [8]: 1.72 g | Organ weight, Epididymides [8]: 1.030 g | Organ weight, Heart [8]: 1.31 g | Organ weight, Kidneys [8]: 2.09 g | Organ weight, Pituitary [8]: 0.0098 g | Organ weight, Seminal vesicles [8]: 0.966 g | Organ weight, Spleen [8]: 0.876 g | Organ weight, Testis L [8]: 1.79 g | Organ weight, Testis R [8]: 1.78 g | Organ weight, Thymus [8]: 0.764 g | Organ weight, Thyroid gland [8]: 0.0227 g | Organ weight, Ventral prostate [8]: 0.518 g | Organ weight, Adrenals [9]: 0.0513 g | Organ weight, Brain [9]: 1.70 g | Organ weight, Epididymides [9]: 0.992 g | Organ weight, Heart [9]: 1.20 g | Organ weight, Kidneys [9]: 2.13 g | Organ weight, Pituitary [9]: 0.0107 g | Organ weight, Seminal vesicles [9]: 1.015 g | Organ weight, Spleen [9]: 0.826 g | Organ weight, Testis L [9]: 1.88 g | Organ weight, Testis R [9]: 1.88 g | Organ weight, Thymus [9]: 0.770 g | Organ weight, Thyroid gland [9]: 0.0236 g | Organ weight, Ventral prostate [9]: 0.521 g | Organ weight, Adrenals [10]: 0.0407 g | Organ weight, Brain [10]: 1.74 g | Organ weight, Epididymides [10]: 0.966 g | Organ weight, Heart [10]: 1.23 g | Organ weight, Kidneys [10]: 2.11 g | Organ weight, Pituitary [10]: 0.0098 g | Organ weight, Seminal vesicles [10]: 1.038 g | Organ weight, Spleen [10]: 0.858 g | Organ weight, Testis L [10]: 1.87 g | Organ weight, Testis R [10]: 1.85 g | Organ weight, Thymus [10]: 0.690 g | Organ weight, Thyroid gland [10]: 0.0266 g | Organ weight, Ventral prostate [10]: 0.536 g | Organ weight, Adrenals [11]: 0.0450 g | Organ weight, Brain [11]: 1.71 g | Organ weight, Epididymides [11]: 0.974 g | Organ weight, Heart [11]: 1.12 g | Organ weight, Kidneys [11]: 2.18 g | Organ weight, Pituitary [11]: 0.0115 g | Organ weight, Seminal vesicles [11]: 1.210 g | Organ weight, Spleen [11]: 0.858 g | Organ weight, Testis L [11]: 1.89 g | Organ weight, Testis R [11]: 1.85 g | Organ weight, Thymus [11]: 0.686 g | Organ weight, Thyroid gland [11]: 0.0294 g | Organ weight, Ventral prostate [11]: 0.566 g | Organ weight, Adrenals [12]: 0.0463 g | Organ weight, Brain [12]: 1.68 g | Organ weight, Epididymides [12]: 0.952 g | Organ weight, Heart [12]: 1.16 g | Organ weight, Kidneys [12]: 2.03 g | Organ weight, Pituitary [12]: 0.0089 g | Organ weight, Seminal vesicles [12]: 0.947 g | Organ weight, Spleen [12]: 0.800 g | Organ weight, Testis L [12]: 1.84 g | Organ weight, Testis R [12]: 1.88 g | Organ weight, Thymus [12]: 0.772 g | Organ weight, Ventral prostate [12]: 0.461 g | Thymus weight (rat, in vivo): not decreased
